{"source": "patent US4478828A", "about": "“Nonapeptide having immunostimulative activity, process for the preparation thereof, and its use” (Hoechst Aktiengesellschaft, priority 1982, dated 1984)", "key": {"spleen cells of mice": {"test_system": "spleen cells of mice", "assay": "Plaqueforming Cell Assay (PFC test), in vitro immunization with sheep erythrocytes", "assay_type": "cell-based", "details": "for Plaques/10^6 cells: added daily, 5 days, control 768", "procedure": "(§1) The nonapeptide of the invention was tested in the Plaqueforming Cell Assay (PFC test) and in the phythemagglutinin stimulation test (PHA test) for its lymphocyte-stimulative action.\nIn the PFC test, cell cultures of freshly dissected spleens of mice (2×10^7 spleen cells per ml) were prepared in RPMI 1640 and 30 μl of fetal calf serum (FCS) per ml of cell culture. In vitro immunization is carried out with 5×10^7 sheep erythrocytes/ml. The test cell cultures are incubated daily with the corresponding dose of the test substance. After a test period of 5 days, the cells are centrifuged off, washed with RPMI 1640 medium, and the direct PCF test is carried out as follows: The cells are mixed in an agarose solution with a 10% sheep erythrocyte suspension, and poured onto a plane surface. In the gel layer so formed the stimulated lymphocytes set free antibodies in the subsequent incubation which diffuse in the environment and adhere to the sheep erythrocytes present in these places. After addition of guinea pig complement the red blood cells lyse. Light-colored, circular spots are formed in the reddish-brown gel, which can be discerned with a naked eye, and which are the hemolysis halos of the plaques. In the center of such hemoylsis halos there is an antibody-producing cell. The number of lymphoid cells which form specific immunoglobulins can therefore be equalized with the plaque values found."}, "lymphocytes": {"test_system": "lymphocytes", "assay": "phythemagglutinin stimulation test (PHA test), 3H-thymidine incorporation", "assay_type": "cell-based", "details": "for Stimulation index SI / Incorporation of 3H-thymidine: 20 μg PHA/ml, 72 hours; for Incorporation of 3H-thymidine: control 114 311", "procedure": "as §1\nThe PHA test allows conclusions on the amount of mature, that is, stimulable, lymphocytes by means of the function test on stimulability with the phytolectin PHA. The lectin, like bacterial or viral antigens, incites the lymphocytes to a blast transformation. It causesd proliferation either directly or by induction of lymphokine secretion.\nThe incorporation of radioactive thymidine within a defined period of time is then the measure for the number of stimulated cells. The mature or immunologically potent T cells only are stimulated. Thus, the influence of a substance on the maturation of lymphocytes can be observed by means of this test. However, stimulation must remain below the optimum; for, at a higher concentration other subpopulations of lymphocytes are stimulated, too, and the effect cannot be observed any longer. The peptide of the invention was added to the culture medium in varying concentrations."}, "[1]": {"assay": "toxic effects on administration (general statement)"}}, "note": "Square brackets hold non-standard residues; d marks the D form. Peptide text beside a SMILES is read from it. pGlu = O=C1CC[C@@H](C(=O)O)N1"}
{"smiles": "C[C@@H](O)[C@H](NC(=O)[C@H](CO)NC(=O)[C@H](CO)NC(=O)[C@H](CO)NC(=O)[C@H](CC(=O)O)NC(=O)[C@@H]1CCC(=O)N1)C(=O)NCC(=O)N[C@@H](Cc1c[nH]c2ccccc12)C(=O)N[C@@H](CC(N)=O)C(=O)O", "note": "[nonapeptide, L-pyroglutamyl-L-aspartyl-L-seryl-L-seryl-L-seryl-L-threonyl-glycyl-L-tryptophyl-L-asparagine] ([pGlu]DSSSTGWN-OH)", "values": [{"measurement": "Plaques/10^6 cells", "setting": "spleen cells of mice; 1 ng/ml nonapeptide", "value": 908, "unit": "Plaques/10^6 cells"}, {"measurement": "Plaques/10^6 cells", "setting": "spleen cells of mice; 10 ng/ml nonapeptide", "value": 1112, "unit": "Plaques/10^6 cells"}, {"measurement": "Plaques/10^6 cells", "setting": "spleen cells of mice; 100 ng/ml nonapeptide", "value": 1024, "unit": "Plaques/10^6 cells"}, {"measurement": "Plaques/10^6 cells", "setting": "spleen cells of mice; 1 μg/ml nonapeptide", "value": 817, "unit": "Plaques/10^6 cells"}, {"measurement": "Plaques/10^6 cells", "setting": "spleen cells of mice; 5 μg/ml nonapeptide", "value": 802, "unit": "Plaques/10^6 cells"}, {"measurement": "stimulation of the lymphocytes depending on the dose", "setting": "spleen cells of mice; PFC test, in words", "value": "bell-shaped curve"}, {"measurement": "Stimulation index SI", "setting": "lymphocytes; 0.0125 μg/ml nonapeptide", "value": 0.89}, {"measurement": "Incorporation of 3H-thymidine", "setting": "lymphocytes; 0.0125 μg/ml nonapeptide", "value": "101 594 cpm"}, {"measurement": "Stimulation index SI", "setting": "lymphocytes; 0.125 μg/ml nonapeptide", "value": 1.20}, {"measurement": "Incorporation of 3H-thymidine", "setting": "lymphocytes; 0.125 μg/ml nonapeptide", "value": "137 519 cpm"}, {"measurement": "Stimulation index SI", "setting": "lymphocytes; 0.5 μg/ml nonapeptide", "value": 1.26}, {"measurement": "Incorporation of 3H-thymidine", "setting": "lymphocytes; 0.5 μg/ml nonapeptide", "value": "143 831 cpm"}, {"measurement": "Stimulation index SI", "setting": "lymphocytes; 1.0 μg/ml nonapeptide", "value": 1.00}, {"measurement": "Incorporation of 3H-thymidine", "setting": "lymphocytes; 1.0 μg/ml nonapeptide", "value": "113 978 cpm"}, {"measurement": "Stimulation index SI", "setting": "lymphocytes; 5.0 μg/ml nonapeptide", "value": 0.94}, {"measurement": "Incorporation of 3H-thymidine", "setting": "lymphocytes; 5.0 μg/ml nonapeptide", "value": "107 670 cpm"}, {"measurement": "stimulation of the lymphocytes depending on the dose", "setting": "lymphocytes; PHA test, in words", "value": "bell-shaped curve"}, {"measurement": "toxic effects", "setting": "[1]", "value": "toxic effects have not been observed hitherto"}]}
